# Experimental data as given in patent publication EP0908457B1, “3-(1,2-benzisothiazol- and isoxazol-5-Y1)-2,4(1H,3H)-pyrimidinedione or thione and 3-(1,2-benzisothiazol- and isoxazol-5-y1)-4(3H)-pyrimidinone or thione herbicidal agents” (BASF AKTIENGESELLSCHAFT, priority 1997, dated 1999).
# How the values were obtained:
# [1] = tested on: Echinochloa oryzoides (Ard.) Fritsch.; assay: Preemergence weed control under flooded paddy conditions, ECHORC (Watergrass (Calif.)); format: in vivo; details: flooded paddy, rated three to four weeks after treatment; further: meaning of each grade not given here
# [2] = tested on: Monochoria vaginalis, Presl.; assay: Postemergence weed control under flooded paddy conditions, MOOVA (Monochoria); format: in vivo; details: rated three to four weeks after treatment
# Cyperus iria [3] = assay: Preemergence weed control under flooded paddy conditions, CYPIR (Rice Flatsedge); format: in vivo; details: flooded paddy, rated three to four weeks after treatment; further: meaning of each grade not given here
# [4] = tested on: Oryza sativa, (L.) Tebonnet; assay: Rice tolerance to post-transplant applications under flooded paddy conditions (Example 187), ORYSAT (Rice, Tebonnet); details: rated three to four weeks after treatment; further: meaning of each grade not given here
# [5] = tested on: Monochoria vaginalis, Presl.; assay: Preemergence weed control under flooded paddy conditions, MOOVA (Monochoria); format: in vivo; details: flooded paddy, rated three to four weeks after treatment; further: meaning of each grade not given here
# [6] = tested on: Oryza sativa, (L.) Tebonnet; assay: Rice tolerance to post-transplant applications under flooded paddy conditions (Example 188), ORYSAT (Rice, Tebonnet); details: rated three to four weeks after treatment
# [7] = tested on: Cyperus serotinus, Rottb.; assay: Postemergence weed control under flooded paddy conditions, CYPSE (Flatsedge); format: in vivo; details: rated three to four weeks after treatment
# Cyperus iria [8] = assay: Postemergence weed control under flooded paddy conditions, CYPIR (Rice Flatsedge); format: in vivo; details: rated three to four weeks after treatment
# Sagittaria pygmaea, L. [9] = assay: Postemergence weed control under flooded paddy conditions, SAGPY (Arrowhead (Pygmaea)); format: in vivo; details: rated three to four weeks after treatment
# [10] = tested on: Echinochloa oryzoides (Ard.) Fritsch.; assay: Postemergence weed control under flooded paddy conditions, ECHORC (Watergrass (Calif.)); format: in vivo; details: rated three to four weeks after treatment
# [11] = tested on: Cyperus serotinus, Rottb.; assay: Preemergence weed control under flooded paddy conditions, CYPSE (Flatsedge); format: in vivo; details: rated three to four weeks after treatment; further: meaning of each grade not given here
# Sagittaria pygmaea, L. [12] = assay: Preemergence weed control under flooded paddy conditions, SAGPY (Arrowhead (Pygmaea)); format: in vivo; details: flooded paddy, rated three to four weeks after treatment; further: meaning of each grade not given here
# [13] = Rate 0.0320 kg/ha, preemergence weeds
# [14] = Rate 0.0620 kg/ha, preemergence weeds
# [15] = Rate 0.1250 kg/ha, preemergence weeds
# [16] = Rate 0.2500 kg/ha, preemergence weeds
# [17] = Rate 0.0320 kg/ha, preemergence
# [18] = Rate 0.0620 kg/ha, preemergence
# [19] = Rate 0.1250 kg/ha, preemergence
# [20] = Rate 0.2500 kg/ha, preemergence
structure (smiles),measurement,setting,value
"CC(C)Oc1cccc(-c2nsc3ccc(-n4c(=O)cc(C(F)(F)F)n(C)c4=O)cc23)c1 [Example 328, 2,4(1H,3H)-Pyrimidinedione, 3-[3-(m-isopropoxyphenyl)-1,2-benzisothiazol-5-yl]-1-methyl-6-(trifluoromethyl)-]","herbicidal effect rating, ECHORC",[1]; [13],9.0
same,"herbicidal effect rating, ECHORC",[1]; [14],9.0
same,"herbicidal effect rating, ECHORC",[1]; [15],9.0
same,"herbicidal effect rating, ECHORC",[1]; [16],9.0
same,"herbicidal effect rating, MOOVA",[2]; Rate 0.0320 kg/ha,9.0
same,"herbicidal effect rating, MOOVA",[2]; Rate 0.0620 kg/ha,9.0
same,"herbicidal effect rating, MOOVA",[2]; Rate 0.1250 kg/ha,9.0
same,"herbicidal effect rating, MOOVA",[2]; Rate 0.2500 kg/ha,9.0
same,"herbicidal effect rating, CYPIR",Cyperus iria [3]; [13],9.0
same,"herbicidal effect rating, CYPIR",Cyperus iria [3]; [14],9.0
same,"herbicidal effect rating, CYPIR",Cyperus iria [3]; [15],9.0
same,"herbicidal effect rating, CYPIR",Cyperus iria [3]; [16],9.0
same,herbicidal effect rating ORYSAT,[4]; Rate 0.0320 kg/ha,2.0
same,herbicidal effect rating ORYSAT,[4]; Rate 0.0620 kg/ha,3.0
same,herbicidal effect rating ORYSAT,[4]; Rate 0.1250 kg/ha,4.0
same,herbicidal effect rating ORYSAT,[4]; Rate 0.2500 kg/ha,4.5
same,"herbicidal effect rating, MOOVA",[5]; [13],9.0
same,"herbicidal effect rating, MOOVA",[5]; [14],9.0
same,"herbicidal effect rating, MOOVA",[5]; [15],9.0
same,"herbicidal effect rating, MOOVA",[5]; [16],9.0
same,"herbicidal effect rating, ORYSAT (rice tolerance)",[6]; Rate 0.0320 kg/ha,2.0
same,"herbicidal effect rating, ORYSAT (rice tolerance)",[6]; Rate 0.0620 kg/ha,4.0
same,"herbicidal effect rating, ORYSAT (rice tolerance)",[6]; Rate 0.1250 kg/ha,4.0
same,"herbicidal effect rating, ORYSAT (rice tolerance)",[6]; Rate 0.2500 kg/ha,4.0
same,"herbicidal effect rating, CYPSE",[7]; Rate 0.0320 kg/ha,0.0
same,"herbicidal effect rating, CYPSE",[7]; Rate 0.0620 kg/ha,2.0
same,"herbicidal effect rating, CYPSE",[7]; Rate 0.1250 kg/ha,6.0
same,"herbicidal effect rating, CYPSE",[7]; Rate 0.2500 kg/ha,6.0
same,"herbicidal effect rating, CYPIR",Cyperus iria [8]; Rate 0.0320 kg/ha,9.0
same,"herbicidal effect rating, CYPIR",Cyperus iria [8]; Rate 0.0620 kg/ha,9.0
same,"herbicidal effect rating, CYPIR",Cyperus iria [8]; Rate 0.1250 kg/ha,9.0
same,"herbicidal effect rating, CYPIR",Cyperus iria [8]; Rate 0.2500 kg/ha,9.0
same,"herbicidal effect rating, SAGPY","Sagittaria pygmaea, L. [9]; Rate 0.0320 kg/ha",0.0
same,"herbicidal effect rating, SAGPY","Sagittaria pygmaea, L. [9]; Rate 0.0620 kg/ha",0.0
same,"herbicidal effect rating, SAGPY","Sagittaria pygmaea, L. [9]; Rate 0.1250 kg/ha",2.0
same,"herbicidal effect rating, SAGPY","Sagittaria pygmaea, L. [9]; Rate 0.2500 kg/ha",6.0
same,"herbicidal effect rating, ECHORC",[10]; Rate 0.0320 kg/ha,7.0
same,"herbicidal effect rating, ECHORC",[10]; Rate 0.0620 kg/ha,9.0
same,"herbicidal effect rating, ECHORC",[10]; Rate 0.1250 kg/ha,9.0
same,"herbicidal effect rating, ECHORC",[10]; Rate 0.2500 kg/ha,9.0
same,"herbicidal effect rating, CYPSE",[11]; [13],6.0
same,"herbicidal effect rating, CYPSE",[11]; [14],6.0
same,"herbicidal effect rating, CYPSE",[11]; [15],7.5
same,"herbicidal effect rating, CYPSE",[11]; [16],9.0
same,"herbicidal effect rating, SAGPY","Sagittaria pygmaea, L. [12]; [13]",2.5
same,"herbicidal effect rating, SAGPY","Sagittaria pygmaea, L. [12]; [14]",3.0
same,"herbicidal effect rating, SAGPY","Sagittaria pygmaea, L. [12]; [15]",4.5
same,"herbicidal effect rating, SAGPY","Sagittaria pygmaea, L. [12]; [16]",4.5
"COc1ccc(OC)c(-c2nsc3ccc(-n4c(=O)cc(C(F)(F)F)n(C)c4=O)cc23)c1 [Example 333, 2,4(1H,3H)-Pyrimidinedione, 3-[3-(2,5-dimethoxyphenyl)-1,2-benzisothiazol-5-yl]-1-methyl-6-(trifluoromethyl)-]","herbicidal effect rating, ECHORC",[1]; [13],9.0
same,"herbicidal effect rating, ECHORC",[1]; [14],9.0
same,"herbicidal effect rating, ECHORC",[1]; [15],9.0
same,"herbicidal effect rating, ECHORC",[1]; [16],9.0
same,"herbicidal effect rating, MOOVA",[2]; Rate 0.0320 kg/ha,9.0
same,"herbicidal effect rating, MOOVA",[2]; Rate 0.0620 kg/ha,9.0
same,"herbicidal effect rating, MOOVA",[2]; Rate 0.1250 kg/ha,9.0
same,"herbicidal effect rating, MOOVA",[2]; Rate 0.2500 kg/ha,9.0
same,"herbicidal effect rating, CYPIR",Cyperus iria [3]; [13],9.0
same,"herbicidal effect rating, CYPIR",Cyperus iria [3]; [14],9.0
same,"herbicidal effect rating, CYPIR",Cyperus iria [3]; [15],9.0
same,"herbicidal effect rating, CYPIR",Cyperus iria [3]; [16],9.0
same,herbicidal effect rating ORYSAT,[4]; Rate 0.0320 kg/ha,4.0
same,herbicidal effect rating ORYSAT,[4]; Rate 0.0620 kg/ha,6.0
same,herbicidal effect rating ORYSAT,[4]; Rate 0.1250 kg/ha,7.0
same,herbicidal effect rating ORYSAT,[4]; Rate 0.2500 kg/ha,7.0
same,"herbicidal effect rating, MOOVA",[5]; [13],9.0
same,"herbicidal effect rating, MOOVA",[5]; [14],9.0
same,"herbicidal effect rating, MOOVA",[5]; [15],9.0
same,"herbicidal effect rating, MOOVA",[5]; [16],9.0
same,"herbicidal effect rating, ORYSAT (rice tolerance)",[6]; Rate 0.0320 kg/ha,4.0
same,"herbicidal effect rating, ORYSAT (rice tolerance)",[6]; Rate 0.0620 kg/ha,5.0
same,"herbicidal effect rating, ORYSAT (rice tolerance)",[6]; Rate 0.1250 kg/ha,6.0
same,"herbicidal effect rating, ORYSAT (rice tolerance)",[6]; Rate 0.2500 kg/ha,6.0
same,"herbicidal effect rating, CYPSE",[7]; Rate 0.0320 kg/ha,0.0
same,"herbicidal effect rating, CYPSE",[7]; Rate 0.0620 kg/ha,2.0
same,"herbicidal effect rating, CYPSE",[7]; Rate 0.1250 kg/ha,4.0
same,"herbicidal effect rating, CYPSE",[7]; Rate 0.2500 kg/ha,8.0
same,"herbicidal effect rating, CYPIR",Cyperus iria [8]; Rate 0.0320 kg/ha,9.0
same,"herbicidal effect rating, CYPIR",Cyperus iria [8]; Rate 0.0620 kg/ha,9.0
same,"herbicidal effect rating, CYPIR",Cyperus iria [8]; Rate 0.1250 kg/ha,9.0
same,"herbicidal effect rating, CYPIR",Cyperus iria [8]; Rate 0.2500 kg/ha,9.0
same,"herbicidal effect rating, SAGPY","Sagittaria pygmaea, L. [9]; Rate 0.0320 kg/ha",0.0
same,"herbicidal effect rating, SAGPY","Sagittaria pygmaea, L. [9]; Rate 0.0620 kg/ha",2.0
same,"herbicidal effect rating, SAGPY","Sagittaria pygmaea, L. [9]; Rate 0.1250 kg/ha",4.0
same,"herbicidal effect rating, SAGPY","Sagittaria pygmaea, L. [9]; Rate 0.2500 kg/ha",4.0
same,"herbicidal effect rating, ECHORC",[10]; Rate 0.0320 kg/ha,9.0
same,"herbicidal effect rating, ECHORC",[10]; Rate 0.0620 kg/ha,9.0
same,"herbicidal effect rating, ECHORC",[10]; Rate 0.1250 kg/ha,9.0
same,"herbicidal effect rating, ECHORC",[10]; Rate 0.2500 kg/ha,9.0
same,"herbicidal effect rating, CYPSE",[11]; [13],7.0
same,"herbicidal effect rating, CYPSE",[11]; [14],7.0
same,"herbicidal effect rating, CYPSE",[11]; [15],7.5
same,"herbicidal effect rating, CYPSE",[11]; [16],7.5
same,"herbicidal effect rating, SAGPY","Sagittaria pygmaea, L. [12]; [13]",5.5
same,"herbicidal effect rating, SAGPY","Sagittaria pygmaea, L. [12]; [14]",8.0
same,"herbicidal effect rating, SAGPY","Sagittaria pygmaea, L. [12]; [15]",8.5
same,"herbicidal effect rating, SAGPY","Sagittaria pygmaea, L. [12]; [16]",9.0
"CON(C)C(=O)COc1ccccc1-c1nsc2ccc(-n3c(=O)cc(C(F)(F)F)n(C)c3=O)cc12 [Example 354, Acetamide, 2-{o-{5-[3,6-dihydro-3-methyl-2,6-dioxo-4-(trifluoromethyl)-1(2H)-pyrimidinyl]-1,2-benzisothiazol-3-yl}phenoxy}-N-methoxy-N-methyl-]","herbicidal effect rating, ECHORC",[1]; [17],9.0
same,"herbicidal effect rating, ECHORC",[1]; [18],9.0
same,"herbicidal effect rating, ECHORC",[1]; [19],9.0
same,"herbicidal effect rating, ECHORC",[1]; [20],9.0
same,"herbicidal effect rating, MOOVA",[2]; Rate 0.0320 kg/ha,6.0
same,"herbicidal effect rating, MOOVA",[2]; Rate 0.0620 kg/ha,9.0
same,"herbicidal effect rating, MOOVA",[2]; Rate 0.1250 kg/ha,9.0
same,"herbicidal effect rating, CYPIR",Cyperus iria [3]; [17],8.3
same,"herbicidal effect rating, CYPIR",Cyperus iria [3]; [18],9.0
same,"herbicidal effect rating, CYPIR",Cyperus iria [3]; [19],9.0
same,"herbicidal effect rating, CYPIR",Cyperus iria [3]; [20],9.0
same,herbicidal effect rating ORYSAT,[4]; Rate 0.0320 kg/ha,7.3
same,herbicidal effect rating ORYSAT,[4]; Rate 0.0620 kg/ha,8.0
same,herbicidal effect rating ORYSAT,[4]; Rate 0.1250 kg/ha,9.0
same,herbicidal effect rating ORYSAT,[4]; Rate 0.2500 kg/ha,9.0
same,"herbicidal effect rating, MOOVA",[5]; [17],9.0
same,"herbicidal effect rating, MOOVA",[5]; [18],9.0
same,"herbicidal effect rating, MOOVA",[5]; [19],9.0
same,"herbicidal effect rating, MOOVA",[5]; [20],9.0
same,"herbicidal effect rating, ORYSAT (rice tolerance)",[6]; Rate 0.0620 kg/ha,6.0
same,"herbicidal effect rating, ORYSAT (rice tolerance)",[6]; Rate 0.1250 kg/ha,6.0
same,"herbicidal effect rating, CYPSE",[7]; Rate 0.0320 kg/ha,1.0
same,"herbicidal effect rating, CYPSE",[7]; Rate 0.0620 kg/ha,2.0
same,"herbicidal effect rating, CYPSE",[7]; Rate 0.1250 kg/ha,9.0
same,"herbicidal effect rating, CYPIR",Cyperus iria [8]; Rate 0.0620 kg/ha,9.0
same,"herbicidal effect rating, CYPIR",Cyperus iria [8]; Rate 0.1250 kg/ha,9.0
same,"herbicidal effect rating, SAGPY","Sagittaria pygmaea, L. [9]; Rate 0.0320 kg/ha",0.0
same,"herbicidal effect rating, SAGPY","Sagittaria pygmaea, L. [9]; Rate 0.0620 kg/ha",2.0
same,"herbicidal effect rating, SAGPY","Sagittaria pygmaea, L. [9]; Rate 0.1250 kg/ha",9.0
same,"herbicidal effect rating, ECHORC",[10]; Rate 0.0320 kg/ha,4.0
same,"herbicidal effect rating, ECHORC",[10]; Rate 0.0620 kg/ha,7.0
same,"herbicidal effect rating, ECHORC",[10]; Rate 0.1250 kg/ha,9.0
same,"herbicidal effect rating, CYPSE",[11]; [17],8.0
same,"herbicidal effect rating, CYPSE",[11]; [18],9.0
same,"herbicidal effect rating, CYPSE",[11]; [19],9.0
same,"herbicidal effect rating, CYPSE",[11]; [20],9.0
same,"herbicidal effect rating, SAGPY","Sagittaria pygmaea, L. [12]; [17]",6.3
same,"herbicidal effect rating, SAGPY","Sagittaria pygmaea, L. [12]; [18]",9.0
same,"herbicidal effect rating, SAGPY","Sagittaria pygmaea, L. [12]; [19]",9.0
same,"herbicidal effect rating, SAGPY","Sagittaria pygmaea, L. [12]; [20]",9.0
